From patent US5587478A, “Sapphyrin multimers” (Board of Regents, The University of Texas System, priority 1995, dated 1996)
Entries after “also recorded” stand apart in the source; their conditions may differ. Read-outs that look alike come from different tables or passages of the source.

Assays:
[1] = diprotonated form; acidic pH; cited from earlier work
[2] = Binding constant titration in methanol
Source text: (§1) Quantitative assessments of dicarboxylate binding efficacy in methanol were made using standard spectroscopic techniques. In general, ^1 H NMR methods were employed, with the observed changes in the ^1 H NMR chemical shifts of the aromatic protons of the carboxyl-containing substrate (kept constant in the mM concentration range) being monitored as a function of increased receptor concentration. In some instances, well-resolved shifts could not be observed in the appropriate ^1 H NMR spectra. Here, either visible spectroscopic titration procedures were used or deuterated substrates were employed such that the binding process could be followed by ^2 H NMR.
(§2) More specifically, binding studies were effected by means of ^1 H NMR (General Electric QE-300), ^2 H NMR (Bruker AM-500) and Vis (Beckman DU 640) titrations and were carried out at 293 K. using methanol as the solvent. Methanol-d4 was used for the ^1 HNMR titrations and non-deuterated methanol was used for the ^2 H NMR analyses. For both sets of NMR titrations, the substrate concentration was held constant and the receptor concentration varied. The change in the chemical shifts of the aromatic hydrogen/deuterium atoms of the substrates were then followed and used as a way of monitoring, in a relative way, the concentration of the bound and unbound species. […]

[3] = Binding constant titration in methanol; remark: listed apart in the source
Source text: as §1, §2

[4] = U-tube model membrane transport, 4-nitrophthalate; conditions: carrier 0.1 mM in dichloromethane; source 10 mM each of three acids, pH 7.2; receiving pH 7; 24-26 °C; error ±10%
Description: (§3) To illustrate the binding of dicarboxylate anions by sapphyrin dimers, transport studies were carried out utilizing a standard U-tube model membrane system. Transport experiments were performed using a glass U-tube at 24°-26° C. Conditions: Source phase: 1 mL of a 1:1:1 ratio of 4-nitrophthalic acid, 5-nitroisophthalic acid and nitroterephthalic acid (10 mM of each) at pH 7.2 (adjusted by the addition of NaOH). Membrane (6 mL); carrier (1a or 23): 0.1 mM in dichloromethane. Receiving phase: 1 mL of H2 O, pH 7.0. The release of the dicarboxylate dianions into the receiving phase was monitored as a function of time via HPLC product analysis achieved using adenosine or uridine as the internal standards. In all cases, control experiments were performed in the absence of carrier. Error is within ±10%.

[5] = U-tube model membrane transport of dicarboxylates, summary; conditions: neutral pH
Description: as §3

[6] = Carboxylate binding, summary statements
Source text: as §1, §2

[7] = Binding constant titration in methanol; conditions: for Ka: methanol, 293 K, 23 as bis HCl salt
Source text: as §1
(§4) More specifically, binding studies were effected by means of ^1 H NMR (General Electric QE-300), ^2 H NMR (Bruker AM-500) and Vis (Beckman DU 640) titrations and were carried out at 293 K. using methanol as the solvent. Methanol-d4 was used for the ^1 HNMR titrations and non-deuterated methanol was used for the ^2 H NMR analyses. For both sets of NMR titrations, the substrate concentration was held constant and the receptor concentration varied. The change in the chemical shifts of the aromatic hydrogen/deuterium atoms of the substrates were then followed and used as a way of monitoring, in a relative way, the concentration of the bound and unbound species. For the Vis titrations, the receptor concentration was held constant and the substrate concentration varied. There, the change in absorption of the Soret-like band of receptor 23 was followed. Receptor 23 was used in the form of its bis-HCl salt, 23-2HCl. This salt was prepared by washing a dichloromethane solution of 23 (in its free-base form) three times with independent portions of an aqueous pH 6 solution of HCl, followed by 1) drying over Na2 SO4, 2) evaporative removal of solvent and 3) drying in vacuo. Substrates were used as their trimethylammonium salts. They were prepared by dissolving the relevant dicarboxylic acid in methanol and then bubbling with trimethylamine gas for 10 min. […]

[8] = Binding constant titration in methanol; conditions: for Kd: methanol, 293 K, 23 as bis HCl salt, read-out: K1, K2 (converted)
Source text: as §1, §4

[9] = Binding constant titration in methanol; remark: listed apart in the source
Source text: as §1, §2

[10] = U-tube model membrane transport, nitroterephthalate
Description: as §3

[11] = U-tube model membrane transport, 5-nitroisophthalate; conditions: carrier 0.1 mM in dichloromethane; source 10 mM each of three acids, pH 7.2; receiving pH 7; 24-26 °C; error ±10%
Description: as §3

[12] = Binding constant titration in methanol; remark: listed apart in the source
Source text: as §1, §2

[13] = Binding constant titration in methanol; remark: listed apart in the source
Source text: as §1, §2

[14] = Binding constant titration in methanol; conditions: for Kd: binding constant, 1H NMR, methanol, 293 K, 23 as bis HCl salt
Source text: as §1, §4

[15] = tested on: DNA; experiment: DNA binding of unmodified sapphyrin
[16] = Protonation state of sapphyrin; format: physicochemical
[17] = Vis spectroscopy, methanol, 293 K, 23 as bis HCl salt
[18] = relative to the worst bound substrate, oxalate

CCC1=C(C)c2cc3[nH]c(c(C)c3CC)c3[nH]c(cc4nc(cc5[nH]c(cc1n2)c(CC)c5CC)C(CC)=C4C)c(CC)c3C [3,8,12,13,17,22-hexaethyl-2,7,18,23-tetramethylsapphyrin]
carrier for through-membrane transport [1]: efficient carrier

CCC1=C(C)c2cc3[nH]c(c(C)c3CC)c3[nH]c(cc4nc(cc5[nH]c(cc1n2)c(C)c5CCC(=O)NCCCNC(=O)CCc1c(C)c2cc5nc(cc6[nH]c(c(C)c6CC)c6[nH]c(cc7nc(cc1[nH]2)C(CC)=C7C)c(CC)c6C)C(C)=C5CC)C(CC)=C4C)c(CC)c3C [Compound 23, 1,3-bis[12-aminocarbonylethyl-(3,8,17,22-tetraethyl-2,7,13,18,23-pentamethylsapphyrin)]propane]
Ka [2, 17]: 5 300 M^-1
Selectivity [2, 18]: 20.4
Ka ([3]; 2H NMR, methanol, 293 K, 23 as bis HCl salt): 4 600 M^-1
Selectivity [3, 18]: 17.7
Initial rate of transport kT, ortho [4]: 2.190 10^-10 mol/cm^2 · h
Carrier efficacy for dicarboxylates [5]: acts as an efficient carrier for a range of dicarboxylates
Affinity and selectivity for carboxylates (in words) [6]: little affinity for monocarboxylate-derived substrates; also recorded: very good affinities for certain dicarboxylates; also recorded: preference for linear over bent substrates and aromatic over aliphatic substrates
Ka ([7]; Vis spectroscopy): 2 500 M^-1
Ka ([7]; first value, footnote printed c): 2 400 M^-1
Selectivity [7, 18]: 9.4
Kd ([8]; 1H NMR): 725 µM
Kd ([8]; 2H NMR): 654 µM
Selectivity [8, 18]: 5.6
Ka [9, 17]: 9 100 M^-1
Selectivity [9, 18]: 35.0
Initial rate of transport kT, para ([10]; carrier 0.1 mM in dichloromethane, source 10 mM each of three acids, pH 7.2, receiving pH 7, 24-26 °C, error ±10%): 6.803 10^-10 mol/cm^2 · h
Transport rate of nitroterephthalate relative to 4-nitrophthalate ([10]; direct competition experiments): three times faster
Initial rate of transport kT, meta [11]: 2.926 10^-10 mol/cm^2 · h
Ka [12, 17]: 450 M⁻¹
Selectivity [12, 18]: 1.7
Ka [13, 17]: 260 M⁻¹
Selectivity [13, 18]: 1
Kd ([14]; read-out: K1 (converted)): 3.23 mM
Kd ([14]; read-out: K2 (converted)): 3.57 mM
Selectivity [14, 18]: 1.2

CCc1c(CC)c2cc3nc(cc4[nH]c(c(C)c4CC)c4[nH]c(cc5nc(cc1[nH]2)C(CCC(=O)N(CCO)CCO)=C5C)c(CC)c4C)C(C)=C3CCC(=O)N(CCO)CCO [sapphyrin]
mode of DNA binding [15]: not intercalation or groove binding
Kd ([15]; unmodified sapphyrin, read-out: binding constant for DNA): ~1000 nM
pH range in which sapphyrin remains monoprotonated [16]: 3.5-10 pH
